Measured values as given in patent publication US20240277743A1, “RESTORING PHYSIOLOGY WITH SMALL MOLECULE MIMICS OF MISSING PROTEINS” (The Board of Trustees Of The University Of Illinois, priority 2014, published 2024).

Columns and labels:
Type in all cases: cell-based, Saccharomyces cerevisiae
[1] = test system: small molecule-rescued trk1Δtrk2Δ cells versus wild type; assay: Probing sensitivities to known chemical inhibitors assay; conditions: FIG. 3E legend
Protocol: Probing sensitivities to known chemical inhibitors assay. Overnight cultures were grown as described in the MIC assay. Prior to harvesting cells, small molecules AmB, nystatin A1 (Riedel-de-Haen), candicidin (TOKU-E), or mepartricin (Santa Cruz Biotechnology) and chemical inhibitors nocodazole (Sigma-Aldrich), ebselen (Cayman Chemical), or bafilomycin BI (Santa Cruz Biotechnology were prepared as stock solutions in DMSO. Saturated cell cultures were centrifuged for 5 minutes at 1000×g. The supernatant was poured off, and cells were resuspended in sterile MilliQ water. Cells were centrifuged again, and supernatant was poured off. The wash step was repeated. The supernatant was poured off, and cells were resuspended in normal potassium YPAD. Cells were diluted with normal potassium YPAD to an OD600 of 0.01. Next, an appropriate volume of AmB, nystatin A1, candicidin, or mepartricin was added to give a final rescuing concentration of 125 nM, 1000 nM, 8 nM, and 8 nM, respectively. A control was prepared by adding the corresponding volume of DMSO to trk1Δtrk2Δ cells. 195 μL of WT+small molecule, 195 μL of trk1Δtrk2Δ+small molecule, and 195 μL of trk1Δtrk2Δ+DMSO were added to a 96 well plate. Next, 5 μL of DMSO or chemical inhibitor was added to each well, with each concentration tested in triplicate for both WT and trk1Δtrk2Δ . The plate was covered and incubated at 30° C. for 24 hours. A BioTek Synergy H1 Hybrid Reader was used to measure the OD600. Utilizing GraphPad PRISM, data were fitted by nonlinear regression, inhibition dose response, variable slope (four parameters) to yield EC50 values with SEM. For statistical analysis, EC50 values from the two treatment groups were compared by unpaired t-test.

[2] = test system: trk1Δtrk2Δ S. cerevisiae; assay: Growth of trk1Δtrk2Δ yeast on normal potassium YPAD agar plates containing AmB; conditions: 125 nM in agar, normal potassium (10 mM)
Protocol: Yeast cell lines and growth conditions. Wild type S. cerevisiae (ATCC 9763), and trk1Δtrk2Δ S. cerevisiae (SGY 1528) were maintained with yeast peptone adenine dextrose (YPAD) growth media consisting of 10 g/L yeast extract, 20 g/L peptone, 20 g/L dextrose, 0.015 g/L adenine hemisulfate salt (final potassium concentration=10 mM). For solid media, 20 g/L agar was added to this same mixture. To culture trk1 Δtrk2Δ S. cerevisiae, additional potassium was added as potassium chloride (100 mM KCl). The media was adjusted to pH 5.0 using citric acid. After autoclave sterilization, dextrose was subsequently added as a sterile 20% w/v solution in water (dextrose solutions were filter-sterilized using a 0.22 μm filter). Liquid cultures were incubated at 30° C. on a rotary shaker (200 rpm). Solid cultures were maintained at 30° C. in an incubator. For solid media containing AmB (AK Scientific), the media was allowed to cool for 15 minutes before addition of AmB at a final concentration of 125 nM. AmB was added to the media as a solution in DMSO. Plates were examined for growth after 24-48 hours of incubation.

[3] = test system: trk1Δtrk2Δ yeast; assay: Functional complementation of a protein with a small molecule assay (rescue broth microdilution)
Source text: (§1) Broth microdilution minimum inhibitory concentration (MIC) assay. The protocol for the MIC broth microdilution assay was adapted from the Clinical and Laboratory Standards Institute document M27-A2 and performed as previously described. Gray, K. C. et. al. Proc. Natl. Acad. Sci. U.S.A. 109, 2234-2239 (2012); Palacios, D. S. et al. J. Am. Chem. Soc. 129, 13804-13805 (2007).
(§2) Functional complementation of a protein with a small molecule assay. The protocol for the rescue broth microdilution assay was conducted as described in the MIC assay above with the following additions: trk1atrk2Δ yeast were grown in high potassium (100 mM) YPAD liquid media overnight and transferred to normal potassium YPAD liquid media containing vehicle or the indicated concentration of AmB.

[4] = test system: trk1Δtrk2Δ cells; assay: Disc diffusion assay of growth rescue; conditions: paper disc impregnated with AmB; FIG. 2C
Protocol: Disc diffusion assay. The assay was performed as previously described. National Committee for Clinical Laboratory Standards in Performance Standards for Antimicrobial Disk Susceptibility Tests; M2-A8 Approved Standard (NCCLS, Wayne) (2003).

[5] = test system: trk1Δtrk2Δ cells; assay: 86Rb+ uptake assay; conditions: 3 μM; FIG. 2F
Protocol: ^86Rb^+ uptake assay. The procedure for 86Rb uptake was adapted from Mulet, J. M. et al. Mol. Cell. Biol. 19, 3328-3337 (1999). Overnight yeast cultures were grown as described above. The supernatant was poured off, and the cells were resuspended in sterile water. This wash was repeated two more times. The cells were then resuspended in 40 mL of the potassium starvation/uptake buffer (50 mM succinic acid, 2% glucose, adjusted to pH 5.5 with Tris). After 3 hour incubation in the potassium starvation buffer, cells were centrifuged and washed twice with sterile water. Cells were resuspended in 1 mL of the potassium starvation/uptake buffer. Cell concentration was determined using an INCYTO®; Neubauer disposable hemocytometer, and wild type S. cerevisiae and trk1Δtrk2Δ cells were diluted to the same cell density. 700 μL of the yeast suspension was added to a 1.5 mL Eppendorf tube. After a 5 minute pre-incubation in the potassium starvation/uptake medium, AmB or C35deOAmB was added (final concentration 3 μM) as a DMSO solution. ^86RbCl (1.1 μCi) was then added to the reaction mixtures. Reaction mixtures were vortexed to ensure a homogeneous solution. […] Moist filters were transferred to plastic vials for measuring radioactivity. Radioactivity was monitored using a Perkin Elmer Wizard automatic gamma counter. […]

[6] = test system: wild type S. cerevisiae; assay: Growth of wild type cells treated with AmB
Source text: as §1, §2

Compound: C[C@@H]1[C@H](O)[C@@H](C)/C=C/C=C/C=C/C=C/C=C/C=C/C=C/[C@H](O[C@@H]2O[C@H](C)[C@@H](O)[C@H](N)[C@@H]2O)C[C@@H]2O[C@](O)(C[C@@H](O)C[C@@H](O)[C@H](O)CC[C@@H](O)C[C@@H](O)CC(=O)O[C@H]1C)C[C@H](O)[C@H]2C(=O)O [AmB, amphotericin B]
- optimum rescue concentration for trk1Δtrk2Δ cells [1]: 0.5 µM
- restoration of growth of the trk1Δtrk2Δ mutant on agar plate [2]: restored vigorous growth
- trk1Δtrk2Δ yeast cell growth in broth dilution assay ([3]; at or above the minimum inhibitory concentration): no growth
- trk1Δtrk2Δ yeast cell growth in broth dilution assay ([3]; intermediate concentrations, normal potassium YPAD, FIG. 2D): dose-dependent increase of growth
- growth rescue in disc diffusion assay [4]: dependence of the growth rescue on the concentration of AmB
- 86Rb+ uptake in trk1Δtrk2Δ cells [5]: uptake was restored
- growth stimulatory effects on wild type cells [6]: no growth stimulatory effects
